Source: patent EP3154958B1, “PHOSPHATIDYLINOSITOL 3-KINASE INHIBITORS” (Gilead Sciences, Inc., priority 2014, dated 2015)
Like-named read-outs stand apart in the source and are kept apart here.

How the values were obtained:
Format in all cases: biochemical
[1] = target: T1, PI3Kβ (Homo sapiens, UniProt P42338); assay: TR-FRET enzymatic activity assay, PI3Kβ
T1 construct: made in house
Procedure, shortened: (§1)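 Compounds were profiled per isoform in a biochemical kinase reaction, with activity detected by time-resolved fluorescence resonance energy transfer.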

[2] = target: T2, PI3Kδ (Homo sapiens, UniProt O00329); assay: TR-FRET enzymatic activity assay, PI3Kδ
T2 construct: made in house
Procedure, shortened: as §1

[3] = target: T3, PI3Kγ (Homo sapiens, UniProt P48736); assay: TR-FRET enzymatic activity assay, PI3Kγ
T3 construct: made in house
Procedure, shortened: as §1

[4] = recombinant heterodimeric PI3Kβ 25-50 pM, 2× Km ATP, 30 minutes at 25°C
[5] = recombinant heterodimeric PI3Kδ 25-50 pM, 2× Km ATP, 30 minutes at 25°C
[6] = recombinant heterodimeric PI3Kγ 2 nM, 2× Km ATP, 30 minutes at 25°C

T1 sequence (P42338 whole entry): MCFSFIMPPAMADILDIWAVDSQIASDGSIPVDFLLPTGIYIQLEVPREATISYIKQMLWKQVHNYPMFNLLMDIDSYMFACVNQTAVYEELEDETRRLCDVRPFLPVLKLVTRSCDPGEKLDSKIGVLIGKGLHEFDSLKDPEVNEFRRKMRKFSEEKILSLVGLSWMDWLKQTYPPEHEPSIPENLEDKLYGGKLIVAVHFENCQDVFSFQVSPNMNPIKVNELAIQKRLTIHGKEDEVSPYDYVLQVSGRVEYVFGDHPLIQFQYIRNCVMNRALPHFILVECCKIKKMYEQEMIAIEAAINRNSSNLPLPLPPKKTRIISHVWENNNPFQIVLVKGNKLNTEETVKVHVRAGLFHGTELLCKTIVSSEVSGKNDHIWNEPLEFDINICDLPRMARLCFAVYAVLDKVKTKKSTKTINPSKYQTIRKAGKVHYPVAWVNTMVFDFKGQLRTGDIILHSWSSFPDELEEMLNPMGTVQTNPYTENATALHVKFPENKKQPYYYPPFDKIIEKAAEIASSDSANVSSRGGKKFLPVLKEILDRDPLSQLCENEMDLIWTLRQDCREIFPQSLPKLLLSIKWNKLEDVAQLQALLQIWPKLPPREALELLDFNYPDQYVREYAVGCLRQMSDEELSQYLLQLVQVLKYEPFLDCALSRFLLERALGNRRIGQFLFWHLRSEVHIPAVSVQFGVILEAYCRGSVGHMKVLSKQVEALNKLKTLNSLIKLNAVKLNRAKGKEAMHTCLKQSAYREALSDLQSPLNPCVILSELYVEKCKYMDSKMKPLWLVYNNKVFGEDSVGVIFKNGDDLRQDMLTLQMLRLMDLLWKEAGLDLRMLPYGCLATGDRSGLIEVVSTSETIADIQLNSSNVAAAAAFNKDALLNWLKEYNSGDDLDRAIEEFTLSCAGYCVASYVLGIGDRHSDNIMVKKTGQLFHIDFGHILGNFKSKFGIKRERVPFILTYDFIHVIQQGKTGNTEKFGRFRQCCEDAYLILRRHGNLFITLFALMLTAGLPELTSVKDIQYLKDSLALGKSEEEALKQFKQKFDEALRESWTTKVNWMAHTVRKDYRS
T1 sequence (P27986 whole entry partner): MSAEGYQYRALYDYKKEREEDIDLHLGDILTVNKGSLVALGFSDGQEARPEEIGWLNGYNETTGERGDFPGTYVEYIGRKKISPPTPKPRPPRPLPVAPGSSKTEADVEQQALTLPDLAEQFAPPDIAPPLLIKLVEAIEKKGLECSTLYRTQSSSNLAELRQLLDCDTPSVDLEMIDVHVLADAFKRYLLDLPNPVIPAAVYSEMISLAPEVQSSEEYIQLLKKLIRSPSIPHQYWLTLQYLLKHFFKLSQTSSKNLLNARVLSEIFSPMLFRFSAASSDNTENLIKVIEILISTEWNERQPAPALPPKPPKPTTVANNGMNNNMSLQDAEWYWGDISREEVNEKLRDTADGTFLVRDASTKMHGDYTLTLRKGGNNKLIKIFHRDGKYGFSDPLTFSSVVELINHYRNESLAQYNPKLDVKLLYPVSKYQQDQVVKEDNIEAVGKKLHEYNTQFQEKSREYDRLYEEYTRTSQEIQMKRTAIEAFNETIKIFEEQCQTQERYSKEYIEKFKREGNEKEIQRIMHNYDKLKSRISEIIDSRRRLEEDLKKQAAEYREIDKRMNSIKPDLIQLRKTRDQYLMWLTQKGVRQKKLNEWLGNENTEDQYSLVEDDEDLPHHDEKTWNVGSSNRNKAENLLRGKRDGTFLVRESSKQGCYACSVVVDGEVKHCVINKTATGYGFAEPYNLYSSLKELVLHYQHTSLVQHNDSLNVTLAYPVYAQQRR
T3 sequence (P48736 whole entry): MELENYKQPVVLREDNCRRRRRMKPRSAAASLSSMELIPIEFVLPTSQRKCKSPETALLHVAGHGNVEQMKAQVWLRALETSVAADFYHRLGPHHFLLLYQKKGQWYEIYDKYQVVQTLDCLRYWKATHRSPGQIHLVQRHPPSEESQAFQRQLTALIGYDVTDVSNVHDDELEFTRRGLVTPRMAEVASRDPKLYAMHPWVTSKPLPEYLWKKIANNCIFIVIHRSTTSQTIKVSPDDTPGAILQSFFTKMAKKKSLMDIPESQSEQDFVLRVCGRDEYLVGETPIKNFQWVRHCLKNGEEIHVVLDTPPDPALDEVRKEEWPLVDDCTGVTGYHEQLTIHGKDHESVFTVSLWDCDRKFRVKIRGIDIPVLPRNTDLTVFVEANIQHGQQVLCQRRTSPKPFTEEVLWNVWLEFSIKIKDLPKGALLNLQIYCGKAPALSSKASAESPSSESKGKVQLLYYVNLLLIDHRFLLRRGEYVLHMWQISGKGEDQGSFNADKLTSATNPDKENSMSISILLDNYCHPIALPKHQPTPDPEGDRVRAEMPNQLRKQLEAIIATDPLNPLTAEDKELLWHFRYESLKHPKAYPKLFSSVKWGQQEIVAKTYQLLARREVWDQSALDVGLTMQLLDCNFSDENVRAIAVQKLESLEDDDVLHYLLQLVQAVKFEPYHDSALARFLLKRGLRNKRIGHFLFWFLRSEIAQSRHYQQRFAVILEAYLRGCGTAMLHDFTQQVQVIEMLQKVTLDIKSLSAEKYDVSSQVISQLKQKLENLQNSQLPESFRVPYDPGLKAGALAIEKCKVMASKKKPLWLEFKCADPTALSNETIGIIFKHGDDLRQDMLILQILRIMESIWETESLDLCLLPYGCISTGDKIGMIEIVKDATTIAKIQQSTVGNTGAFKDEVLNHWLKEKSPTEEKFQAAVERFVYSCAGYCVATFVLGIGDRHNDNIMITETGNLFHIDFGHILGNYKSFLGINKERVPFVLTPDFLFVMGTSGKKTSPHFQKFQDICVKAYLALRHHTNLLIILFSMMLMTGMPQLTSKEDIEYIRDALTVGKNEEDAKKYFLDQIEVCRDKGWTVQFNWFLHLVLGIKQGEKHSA
T3 sequence (Q8WYR1 whole entry partner): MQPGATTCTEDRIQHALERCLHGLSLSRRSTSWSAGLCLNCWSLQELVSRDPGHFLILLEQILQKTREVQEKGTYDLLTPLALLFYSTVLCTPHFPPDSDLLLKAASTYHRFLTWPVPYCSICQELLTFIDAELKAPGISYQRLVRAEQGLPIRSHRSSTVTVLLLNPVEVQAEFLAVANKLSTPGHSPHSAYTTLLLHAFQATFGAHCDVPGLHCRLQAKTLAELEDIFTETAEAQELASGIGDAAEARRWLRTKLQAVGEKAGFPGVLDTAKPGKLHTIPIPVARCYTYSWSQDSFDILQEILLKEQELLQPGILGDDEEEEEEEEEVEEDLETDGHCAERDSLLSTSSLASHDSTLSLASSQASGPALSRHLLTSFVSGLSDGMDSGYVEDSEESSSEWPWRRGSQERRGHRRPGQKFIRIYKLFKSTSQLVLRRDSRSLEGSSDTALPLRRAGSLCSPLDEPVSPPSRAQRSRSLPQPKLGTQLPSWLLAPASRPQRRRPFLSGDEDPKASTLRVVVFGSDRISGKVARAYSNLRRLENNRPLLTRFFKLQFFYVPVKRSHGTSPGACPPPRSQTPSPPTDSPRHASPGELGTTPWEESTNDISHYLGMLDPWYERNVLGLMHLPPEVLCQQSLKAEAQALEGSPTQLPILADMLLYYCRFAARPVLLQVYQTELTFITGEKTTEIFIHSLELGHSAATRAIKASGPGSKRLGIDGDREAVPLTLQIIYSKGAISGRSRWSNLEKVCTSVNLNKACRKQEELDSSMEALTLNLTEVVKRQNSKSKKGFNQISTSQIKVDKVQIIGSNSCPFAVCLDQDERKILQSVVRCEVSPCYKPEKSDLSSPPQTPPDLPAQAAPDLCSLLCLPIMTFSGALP
T2 sequence (O00329 whole entry): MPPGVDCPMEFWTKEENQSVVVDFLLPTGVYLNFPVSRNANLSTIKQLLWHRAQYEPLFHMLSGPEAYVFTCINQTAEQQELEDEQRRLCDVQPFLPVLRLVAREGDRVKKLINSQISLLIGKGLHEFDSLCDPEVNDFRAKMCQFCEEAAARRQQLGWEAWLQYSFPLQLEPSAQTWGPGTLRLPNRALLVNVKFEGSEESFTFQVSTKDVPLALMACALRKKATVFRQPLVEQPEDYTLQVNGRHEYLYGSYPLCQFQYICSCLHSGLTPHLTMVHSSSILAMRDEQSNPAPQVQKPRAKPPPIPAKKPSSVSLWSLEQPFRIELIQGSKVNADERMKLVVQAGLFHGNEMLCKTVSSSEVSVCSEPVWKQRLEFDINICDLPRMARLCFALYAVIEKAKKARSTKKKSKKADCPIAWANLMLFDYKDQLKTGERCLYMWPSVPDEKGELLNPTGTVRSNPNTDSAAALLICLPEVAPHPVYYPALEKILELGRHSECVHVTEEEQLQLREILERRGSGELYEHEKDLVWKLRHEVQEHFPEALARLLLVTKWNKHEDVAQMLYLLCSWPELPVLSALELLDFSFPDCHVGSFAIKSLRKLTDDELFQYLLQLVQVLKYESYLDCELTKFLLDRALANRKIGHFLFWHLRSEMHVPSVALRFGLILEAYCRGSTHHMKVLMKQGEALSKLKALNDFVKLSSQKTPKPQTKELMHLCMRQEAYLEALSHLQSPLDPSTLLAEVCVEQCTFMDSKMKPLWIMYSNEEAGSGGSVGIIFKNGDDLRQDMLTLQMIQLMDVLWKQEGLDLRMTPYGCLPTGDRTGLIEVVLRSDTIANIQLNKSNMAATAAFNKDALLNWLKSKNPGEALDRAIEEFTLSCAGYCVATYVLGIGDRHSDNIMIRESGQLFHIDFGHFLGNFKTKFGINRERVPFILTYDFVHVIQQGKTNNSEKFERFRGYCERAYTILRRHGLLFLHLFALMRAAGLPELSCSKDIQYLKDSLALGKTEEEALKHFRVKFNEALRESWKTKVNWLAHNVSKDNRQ
T2 sequence (P27986 whole entry partner): as the sequence (P27986 whole entry partner) above

Row | SMILES | IC50 [1, 4] [nM] | IC50 [2, 5] [nM] | IC50 [3, 6] [µM] | IC50 [1] [nM] | IC50 [2] [nM] | IC50 [3] [µM]
1 | Cc1nc(N)c(C(=O)N[C@@H](C)c2nc3cccc(Cl)c3c(=O)n2N2CCNCC2)nc1C [Compound 59, (S)-3-amino-N-(1-(5-chloro-4-oxo-3-(piperazin-1-yl)-3,4-dihydroquinazolin-2-yl)ethyl)-5,6-dimethylpyrazine-2-carboxamide] | 73 | 280 | > 10 |  |  | 
2 | O=c1c2c(Cl)cccc2nc([C@@H]2CCCN2c2ncnn3ccnc23)n1N1CCNCC1 [Compound 133, (S)-5-chloro-2-(1-(imidazo[2,1-f][1,2,4]triazin-4-yl)pyrrolidin-2-yl)-3-(piperazin-1-yl)quinazolin-4(3H)-one] | 900 | 75 | > 10 |  |  | 
3 | C[C@H](Nc1ncnc(N)c1C#N)c1nc2cccc(Cl)c2c(=O)n1N1CCC(N)C1 (stereo partly drawn) [Compound 130, 4-amino-6-(((1S)-1-(3-(3-aminopyrrolidin-1-yl)-5-chloro-4-oxo-3,4-dihydroquinazolin-2-yl)ethyl)amino)pyrimidine-5-carbonitrile] | 62 | 1 | > 10 |  |  | 
4 | C[C@H](Nc1nc(N)nc(N)c1C#N)c1nc2c(F)ccc(Cl)c2c(=O)n1C1[C@H]2CNC[C@@H]12 (stereo in doubt) [Compound 17, 4-(((1S)-1-(3-((1R,5S)-3-azabicyclo[3.1.0]hexan-6-yl)-5-chloro-8-fluoro-4-oxo-3,4-dihydroquinazolin-2-yl)ethyl)amino)-2,6-diaminopyrimidine-5-carbonitrile] | 3 | 4 | 2.8 |  |  | 
5 | C[C@H](Nc1ncnc(N)c1C#N)c1nc2c(Cl)ccc(Cl)c2c(=O)n1N1CCNCC1 [Compound 76, (S)-4-amino-6-((1-(5,8-dichloro-4-oxo-3-(piperazin-1-yl)-3,4-dihydroquinazolin-2-yl)ethyl)amino)pyrimidine-5-carbonitrile] | 25 | 2 | > 10 |  |  | 
6 | C[C@H](Nc1ncnc2ccc(Cl)nc12)c1nc2c(Cl)ccc(Cl)c2c(=O)n1N1CCNCC1 [Compound 52, (S)-5,8-dichloro-2-(1-((6-chloropyrido[3,2-d]pyrimidin-4-yl)amino)ethyl)-3-(piperazinl-yl)quinazolin-4(3H)-one] |  |  |  | 8 | 3 | 3.1
7 | N#Cc1c(N)nc(N)nc1N[C@H](c1nc2c(F)ccc(F)c2c(=O)n1N1CCNCC1)C1CC1 [Compound 127, (S)-2,4-diamino-6-((cyclopropyl(5,8-difluoro-4-oxo-3-(piperazin-1-yl)-3,4-dihydroquinazolin-2-yl)methyl)amino)pyrimidine-5-carbonitrile] | 28 | 13 | > 10 |  |  | 

Results, then the compound that gave them:

Row | IC50 [1, 4] [nM] | IC50 [2, 5] [nM] | IC50 [3, 6] [µM] | IC50 [1] [nM] | IC50 [2] [nM] | IC50 [3] [µM] | SMILES
8 | 1900 | 9 | > 10 |  |  |  | C[C@H](Nc1ncnc(N)c1C#N)c1nc2cccc(Cl)c2c(=O)n1C1CCN(CC(F)F)CC1 [Compound 105, (S)-4-amino-6-((1-(5-chloro-3-(1-(2,2-difluoroethyl)piperidin-4-yl)-4-oxo-3,4-dihydroquinazolin-2-yl)ethyl)amino)pyrimidine-5-carbonitrile]
9 | 22 | 2 | > 10 |  |  |  | C[C@H](Nc1ncnc(N)c1C#N)c1nc2cccc(Cl)c2c(=O)n1N1CCCNCC1 [Compound 67, (S)-4-amino-6-((1-(5-chloro-3-(1,4-diazepan-1-yl)-4-oxo-3,4-dihydroquinazolin-2-yl)ethyl)amino)pyrimidine-5-carbonitrile]
10 | 10 | 14 | > 10 |  |  |  | C[C@H](Nc1nc(N)nc(Cl)c1C#N)c1nc2cccc(Cl)c2c(=O)n1C1CCNCC1 [Compound 128, (S)-2-Amino-4-chloro-6-((1-(5-chloro-4-oxo-3-(piperidin-4-yl)-3,4-dihydroquinazolin-2-yl)ethyl)amino)pyrimidine-5-carbonitrile]
11 | 220 | 6 | 1.5 |  |  |  | C[C@H](Nc1nc(N)nc(N)c1C#N)c1nc2cccc(Cl)c2c(=O)n1C1CCNCC1(F)F (stereo partly drawn) [Compound 38, 2,4-diamino-6-(((1S)-1-(5-chloro-3-(3,3-difluoropiperidin-4-yl)-4-oxo-3,4-dihydroquinazolin-2-yl)ethyl)amino)pyrimidine-5-carbonitrile]
12 | 15 | 5 | > 10 |  |  |  | CC[C@H](Nc1nc(N)nc(N)c1C#N)c1nc2cccc(Cl)c2c(=O)n1C1CCNCC1 [Compound 22, (S)-2,4-diamino-6-((1-(5-chloro-4-oxo-3-(piperidin-4-yl)-3,4-dihydroquinazolin-2-yl)propyl)amino)pyrimidine-5-carbonitrile]
13 | 192 | 2 | 0.259 |  |  |  | C[C@H](Nc1nc(N)nc(N)c1C#N)c1nc2cccc(Cl)c2c(=O)n1[C@H]1CCOC1 [Compound 136, 2,4-diamino-6-(((S)-1-(5-chloro-4-oxo-3-((S)-tetrahydrofuran-3-yl)-3,4-dihydroquinazolin-2-yl)ethyl)amino)pyrimidine-5-carbonitrile]
14 | 93 | 15 | 0.46 |  |  |  | C[C@H](Nc1nc(N)nc(N)c1C#N)c1nc2cccc(Cl)c2c(=O)n1N1CCN(C2COC2)CC1 [Compound 97, (S)-2,4-diamino-6-((1-(5-chloro-3-(4-(oxetan-3-yl)piperazin-1-yl)-4-oxo-3,4-dihydroquinazolin-2-yl)ethyl)amino)pyrimidine-5-carbonitrile]
15 | 2 | 3 | > 10 |  |  |  | Cc1nc(N)nc(N[C@@H](C)c2nc3cccc(Cl)c3c(=O)n2C2CCNCC2)c1C#N [Compound 24, (S)-2-amino-4-((1-(5-chloro-4-oxo-3-(piperidin-4-yl)-3,4-dihydroquinazolin-2-yl)ethyl)amino)-6-methylpyrimidine-5-carbonitrile]
16 | 100 | 25 | > 10 |  |  |  | C[C@H](Nc1nc(N)nc(N)c1Cl)c1nc2cccc(Cl)c2c(=O)n1C1CCNCC1 [Compound 25, (S)-5-chloro-2-(1-((2,6-diamino-5-chloropyrimidin-4-yl)amino)ethyl)-3-(piperidin-4-yl)quinazolin-4(3H)-one]
